# Measured values: patent publication US5459150A, “Indole derivatives which inhibit leukotriene biosynthesis” (Abbott Laboratories, priority 1993, dated 1995)
# pIC50: −log10 of the molar value. Structures can show the parent of a compound that is named as a salt.
# Tests used:
# [1] = system: LTB4 biosynthesis in human polymorphonuclear leukocytes (PMNL); assay: Inhibition of LTB4 biosynthesis in human PMNL (calcium ionophore A23187-induced); type: cell-based; settings: for pIC50: A23187 8.3 μM, 15 min preincubation; for Human PMNL, inhibition of LTB4 biosynthesis, % @ 1.6: @ 1.6 (μM)
# Procedure: (§1) Inhibition of leukotriene biosynthesis by representative compounds of the present invention was evaluated in assays involving calcium ionophore-induced LTB4 biosynthesis expressed by human polymorphonuclear leukocytes (PMNL) or human whole blood. Human PMNL were isolated from heparinized (20 USP units/mL) venous blood using Ficoll-Hypaque Mono-Poly Resolving Medium. Human PMNL suspensions (5×10^6 cells/250 μL) were preincubated with test compounds or vehicle for 15 min at 37° C. followed by calcium ionophore A23187 challenge (final concentration of 8.3 μM) and the reaction terminated after 10 rain by adding two volumes of methanol containing prostaglandin B2 as an internal recovery standard. The methanol extracts were analyzed for LTB4 content by HPLC or radioimmunoassay.
# [2] = system: LTB4 biosynthesis in human whole blood; assay: Inhibition of LTB4 biosynthesis in human whole blood (calcium ionophore A23187-induced); type: cell-based; settings: human heparinized whole blood, A23187, 30 min at 37° C.
# Procedure: as §1
# The assay using human heparinized whole blood was incubated for 30 minutes at 37° C. after adding […] of ionophore A23187. The plasma layer was obtained by centrifugation and deproteinized by the addition of four volumes of methanol. The methanol extract was analyzed for LTB4 by HPLC or radioimmunoassay.
# leukotriene biosynthesis = assay: Inhibition of leukotriene biosynthesis in vivo, rat peritoneal anaphylaxis model; settings: one hour prior to antigen challenge
# Procedure: Inhibition of the biosynthesis of leukotrienes in vivo after oral administration of compound was determined using a rat peritoneal anaphylaxis model in a similar manner as that described by Young and coworkers (Young, P. R.; Dyer, R. D.; Carter, G. W. Fed. Proc., Fed. Am. Soc. Exp. Biol. 1985, 44, 1185). In this model rats were injected intraperitoneally (ip) with rabbit antibody to bovine serum albumin (BSA) and three hours later injected ip with BSA to induce an antigen-antibody response. Rats were sacrificed 15 minutes after this challenge and the peritoneal fluids were collected and analyzed for leukotriene levels. Test compounds were administered by garage one hour prior to the antigen challenge. Percent inhibition values were determined by comparing the treatment group to the mean of the control group. Compounds of this invention are orally effective in preventing the in vivo bio-synthesis of leukotrienes as illustrated for representative examples shown in Table 2.
"pIC50 ([2]; Homo sapiens, 0.5 h)",pIC50 [1],SMILES,other results
5.60,–,"CC(C)c1ccc2c(c1)c(SC(C)(C)C)c([C@@H]1C[C@H]1CN(O)C(N)=O)n2Cc1ccc(Cl)cc1 (relative stereo) [Example 14, N-hydroxy-N-[trans-2-(1-(4-chlorophenylmethyl)-3-(1,1-dimethylethylthio)-5-(1-methylethyl)indol-2-yl)cyclopropyl]methylurea]","Human PMNL, inhibition of LTB4 biosynthesis, % @ 0.78 ([1]; @ 0.78 (μM)): 40%"
5.57,6.40,"CC(C)c1ccc2c(c1)c(SC(C)(C)C)c([C@@H]1C[C@H]1CNC(N)=O)n2Cc1ccc(Cl)cc1 (relative stereo) [Example 23, N-[trans-2-(1-(4-chlorophenylmethyl)-3-(1,1-dimethylethylthio)-5-(1-methylethyl)indol-2-yl)cyclopropyl]methyl urea]",–
5.89,6.82,CC(C)c1ccc2c(c1)c(SC(C)(C)C)c(CC(C)(C)NC(=O)N(C)O)n2Cc1ccc(Cl)cc1 [Example 1],–
5.66,6.57,"CC(C)c1ccc2c(c1)c(SC(C)(C)C)c(CC(C)(C)C=NO)n2Cc1ccc(Cl)cc1 [Example 2, 2,2-dimethyl-3-[1-(4-chlorophenylmethyl)-3-(1,1-dimethylethylthio)-5-(1-methylethyl)indol-2-yl]propionaldehyde oxime]",Percent Leukotriene inhibition at 100 μmol/kg oral dose (leukotriene biosynthesis): 46%
5.80,6.77,"CC(C)c1ccc2c(c1)c(SC(C)(C)C)c(CC(C)(C)CN(O)C(N)=O)n2Cc1ccc(Cl)cc1 [Example 3, N-hydroxy-N-2,2-dimethyl-3-[(1-(4-chlorophenylmethyl)-3-(1,1-dimethylethylthio)-5-(1-methylethyl))indol-2-yl]propyl urea]",Percent Leukotriene inhibition at 100 μmol/kg oral dose (leukotriene biosynthesis): 68%
5.17,6.24,"CC(C)c1ccc2c(c1)c(SC(C)(C)C)c(CCNC(=O)N(C)O)n2Cc1ccc(Cl)cc1 [Example 4, N'-hydroxy-N'methyl-N-2-[(1-(4-chlorophenylmethyl)-3-(1,1-dimethylethylthio)-5-(1-methylethyl))indol-2-yl]ethyl urea]",–
6.15,6.74,"CC(C)c1ccc2c(c1)c(SC(C)(C)C)c(CC(C)(C)CNC(N)=O)n2Cc1ccc(Cl)cc1 [Example 5, N-2,2-dimethyl-3-[(1-(4-chlorophenylmethyl)-3-(1,1-dimethylethyl-thio)-5-(1-methylethyl))indol-2-yl]propyl urea]",Percent Leukotriene inhibition at 100 μmol/kg oral dose (leukotriene biosynthesis): 86%
5.92,6.82,"CC(C)c1ccc2c(c1)c(SC(C)(C)C)c(CC(C)(C)C(=O)NCCNC(=O)N(C)O)n2Cc1ccc(Cl)cc1 [Example 6, N'-hydroxy-N'-methyl-N-2-[3-(1-(4-chlorophenylmethyl)-3-(1,1-dimethylethylthio)-5-(1-methylethyl)indol-2-yl)-2,2-dimethylpropionylamino]ethyl urea]",Percent Leukotriene inhibition at 100 μmol/kg oral dose (leukotriene biosynthesis): 86%
5.85,6.51,CC(C)c1ccc2c(c1)c(SC(C)(C)C)c(CC(C)(C)C(=O)NCCC(=O)O)n2Cc1ccc(Cl)cc1 [Example 6.2],–
5.16,5.38,"CC(C)c1ccc2c(c1)c(SC(C)(C)C)c(CC(C)(C)CNCCCO)n2Cc1ccc(Cl)cc1 [Example 7, 1-(4-chlorophenylmethyl)-2-[2,2-dimethyl-3-((3-hydroxypropyl)amino)propyl]-3-(1,1-dimethylethylthio)-5-(1-methylethyl)indole]",–
5.28,6.40,"CC(C)c1ccc2c(c1)c(SC(C)(C)C)c(CC(C)(C)NC(N)=O)n2Cc1ccc(Cl)cc1 [Example 8, N-2-[2-methyl-3-(1-(4-chlorophenylmethyl)-3-(1,1-dimethylethylthio)-5-(1-methylethyl)indol-2-yl)]propyl urea]",–
5.25,–,CCOC(=O)CCNC(=O)NC(C)(C)Cc1c(SC(C)(C)C)c2cc(C(C)C)ccc2n1Cc1ccc(Cl)cc1 [Example 9],"Human PMNL, inhibition of LTB4 biosynthesis, % @ 1.6 [1]: 77%"
5.60,–,CC(C)c1ccc2c(c1)c(SC(C)(C)C)c(CC(C)(C)NC(=O)NCCC(=O)O)n2Cc1ccc(Cl)cc1 [Example 10],"Human PMNL, inhibition of LTB4 biosynthesis, % @ 1.6 [1]: 70%"
5.89,–,"CC(C)c1ccc2c(c1)c(SC(C)(C)C)c(CC(C)(C)C=NNC(=N)N)n2Cc1ccc(Cl)cc1 [Example 12, 1-(4-chlorophenylmethyl)-3-(1,1-dimethylethylthio)-2-[3-(2,2-dimethyl-1-guanidinylimino)propyl]-(1-methylethyl)indole]","Human PMNL, inhibition of LTB4 biosynthesis, % @ 3.1 ([1]; @ 3.1 (μM)): 100%"
–,–,"CC(C)c1ccc2c(c1)c(SC(C)(C)C)c(CC(C)(C)NC(=O)NCCC(=O)O)n2Cc1ccc(Cl)cc1 [Example 13, 3-[3-(1-(4-chlorophenylmethyl)-3-(1,1dimethylethylthio)-5-(1-methylethyl)indol-2-yl)-2-aminocarbonylamino-2-methylpropyl]propanoic acid, sodium salt]",pIC50 ([2]; sodium salt): 5.52
6.05,7.05,"CC(C)c1ccc2c(c1)c(SC(C)(C)C)c(CC(C)(C)C(=O)O)n2Cc1ccncc1 [Example 15, 3-[3-(1,1-dimethylethylthio)-5-(1-methylethyl)-1-(4-pyridinylmethyl)indol-2-yl]-2,2-dimethylpropanoic acid]",–
5.26,–,CC(C)c1ccc2c(c1)c(SC(C)(C)C)c(CC(C)(C)C(=O)O)n2Cc1cccs1 [Example 16],–
6.17,–,CC(C)c1ccc2c(c1)c(SC(C)(C)C)c(CC(C)(C)C=NOCC(=O)O)n2Cc1ccc(Cl)cc1 [Example 20],Percent Leukotriene inhibition at 100 μmol/kg oral dose (leukotriene biosynthesis): 99%
5.96,–,CC(C)c1ccc2c(c1)c(SC(C)(C)C)c(CC(C)(C)CN)n2Cc1ccc(Cl)cc1 [Example 21],–
5.68,–,CC(=O)NCC(C)(C)Cc1c(SC(C)(C)C)c2cc(C(C)C)ccc2n1Cc1ccc(Cl)cc1 [Example 22],–

SMILES,"pIC50 ([2]; Homo sapiens, 0.5 h)",pIC50 [1],other results
"CCOC(=O)C(C)(C)Cc1c(C(=O)CCNC(=O)N(C)O)c2cc(C(C)C)ccc2n1Cc1ccc(Cl)cc1 [Example 11, N'-hydroxy-N'-methyl-N-'[1-(4-chlorophenylmethyl)-5-(1-methylethyl)-2-((2-methyl-2-ethoxycarbonyl)propyl)indol-2-yl]-3-oxopropylurea]",–,5.82,pIC50 ([2]; 0.5 h): 5.16
